# Measured values as given in patent US5891869A, “Basic oxazoline-amide derivatives of GE2270 and GE2270-like antibiotics” (Biosearch Italia, S.p.A., priority 1995, dated 1999).
# Tests used:
# Assay in all cases: MIC by microbroth dilution
# Strept. sanguis L1721 = type: cell-based, Streptococcus sanguis; settings: 0,01% BSA, 10^4 CFU/ml, 18-24 h, Todd Hewitt broth
# Procedure: (§1) The minimal inhibitory concentration (MIC) has been determined by microbroth dilution methodology, in the presence of 0,01% (w/v) of bovine serum albumin (BSA). BSA is added to the diluent to avoid possible adherence of the compounds of the invention to the plastic surface of the microtiter wells, as disclosed also by B. Goldstein et al., Antimicrobial Agents and Chemotherapy, 37 (1993), 741-745.
# (§2) Inocula were 10^4 CFU/ml, except for Propionibacterium acnes and Bacteroides fragilis (10^5 CFU/ml) MICs were read after 18-24 h, except for Haemophilus influenzae, P. acnes, B. fragilis (48 h).
# (§3) All microorganisms were incubated at 37° C.; H. influenzae in a 5% CO2 atmosphere, anaerobes in a N2 --CO2 --H2 (80:10:10) mixture; other organisms in air.
# (§4) The growth media are: Oxoid Iso-Sensitest broth for staphylococci and Enterococcus faecalis); Difco Todd Hewitt broth for streptococci; Difco brain heart infusion broth+1% Difco Supplement C. for H. influenzae; Difco Wilkins-Chalgren broth for anaerobes.
# Strept. pneumoniae L44 = type: cell-based, Streptococcus pneumoniae; settings: 0,01% BSA, 10^4 CFU/ml, 18-24 h, Todd Hewitt broth
# Procedure: as §1, §2, §3, §4
# Strept. agalactiae L310 = type: cell-based, Streptococcus agalactiae; settings: 0,01% BSA, 10^4 CFU/ml, 18-24 h, Todd Hewitt broth
# Procedure: as §1, §2, §3, §4
# [1] = tested on: Bacteroides fragilis ATCC 25285 L1011; type: cell-based; settings: 0,01% BSA, 10^5 CFU/ml, 48 h, anaerobic, Wilkins-Chalgren broth
# Procedure: as §1, §2, §3, §4
# [2] = tested on: Staphylococcus aureus L165; type: cell-based; settings: 0,01% BSA, inoculum 10^4 CFU/ml, read after 18-24 h, Iso-Sensitest broth
# Procedure: as §1, §2, §3, §4
# [3] = tested on: Streptococcus pyogenes L49; type: cell-based; settings: 0,01% BSA, 10^4 CFU/ml, 18-24 h, Todd Hewitt broth
# Procedure: as §1, §2, §3, §4
# [4] = tested on: Haemoph. influenzae ATCC 19418 L970; type: cell-based, Haemophilus influenzae; settings: 0,01% BSA, 10^4 CFU/ml, 48 h, 5% CO2, brain heart infusion broth+1% Supplement C
# Procedure: as §1, §2, §3, §4
# Staph. haemolyticus L602 = type: cell-based, Staphylococcus haemolyticus; settings: 0,01% BSA, 10^4 CFU/ml, 18-24 h, Iso-Sensitest broth
# Procedure: as §1, §2, §3, §4
# [5] = tested on: Staph. epidermidis ATCC 12228 L147; type: cell-based, Staphylococcus epidermidis; settings: 0,01% BSA, 10^4 CFU/ml, 18-24 h, Iso-Sensitest broth
# Procedure: as §1, §2, §3, §4
# [6] = tested on: Propionibact. acnes ATCC 6919 L1014; type: cell-based, Propionibacterium acnes; settings: 0,01% BSA, 10^5 CFU/ml, 48 h, anaerobic, Wilkins-Chalgren broth
# Procedure: as §1, §2, §3, §4
SMILES,MIC of the compounds (Strept. sanguis L1721),MIC of the compounds (Strept. pneumoniae L44),MIC of the compounds (Strept. agalactiae L310),MIC of the compounds [1],MIC of the compounds [2],MIC of the compounds [3],MIC of the compounds [4],MIC of the compounds (Staph. haemolyticus L602),MIC of the compounds [5],MIC of the compounds [6]
CNC(=O)CC1NC(=O)c2csc(n2)-c2ccc(-c3nc(C4=NC(C(=O)NCCCN(C)C)CO4)cs3)nc2-c2csc(n2)-c2csc(n2)C(C(O)c2ccccc2)NC(=O)CNC(=O)c2nc(sc2COC)C(C(C)C)NC(=O)c2nc1sc2C (mixture of isomers) [Compound 5],0.25 µg/mL,0.25 µg/mL,2 µg/mL,32 µg/mL,0.06 µg/mL,1 µg/mL,–,–,–,–
CCN(CC)CCNC(=O)C1COC(c2csc(-c3ccc4c(n3)-c3csc(n3)-c3csc(n3)C(C(O)c3ccccc3)NC(=O)CNC(=O)c3nc(sc3COC)C(C(C)C)NC(=O)c3nc(sc3C)C(CC(=O)NC)NC(=O)c3csc-4n3)n2)=N1 (mixture of isomers) [Compound 3],0.5 µg/mL,0.5 µg/mL,4 µg/mL,–,0.06 µg/mL,2 µg/mL,128 µg/mL,–,–,–
CCN(CC)CCN(CC)C(=O)C1COC(c2csc(-c3ccc4c(n3)-c3csc(n3)-c3csc(n3)C(C(O)c3ccccc3)NC(=O)CNC(=O)c3nc(sc3COC)C(C(C)C)NC(=O)c3nc(sc3C)C(CC(=O)NC)NC(=O)c3csc-4n3)n2)=N1 (mixture of isomers) [Compound 9],1 µg/mL,0.5 µg/mL,32 µg/mL,–,0.06 µg/mL,2 µg/mL,–,–,–,–
CNC(=O)CC1NC(=O)c2csc(n2)-c2ccc(-c3nc(C4=NC(C(=O)NCCN(C)C)CO4)cs3)nc2-c2csc(n2)-c2csc(n2)C(C(O)c2ccccc2)NC(=O)CNC(=O)c2nc(sc2COC)C(C(C)C)NC(=O)c2nc1sc2C (mixture of isomers) [Compound 7],1 µg/mL,1 µg/mL,8 µg/mL,–,0.13 µg/mL,4 µg/mL,–,–,–,–
CNC(=O)CC1NC(=O)c2csc(n2)-c2ccc(-c3nc(C4=NC(C(=O)N5CCN(CCCN(C)C)CC5)CO4)cs3)nc2-c2csc(n2)-c2csc(n2)C(C(O)c2ccccc2)NC(=O)CNC(=O)c2nc(sc2COC)C(C(C)C)NC(=O)c2nc1sc2C (mixture of isomers) [Compound 17],0.5 µg/mL,0.5 µg/mL,8 µg/mL,–,0.06 µg/mL,2 µg/mL,–,–,–,–
CNC(=O)CC1NC(=O)c2csc(n2)-c2ccc(-c3nc(C4=NC(C(=O)N(C)CC(=O)N(C)CCN(C)C)CO4)cs3)nc2-c2csc(n2)-c2csc(n2)C(C(O)c2ccccc2)NC(=O)CNC(=O)c2nc(sc2COC)C(C(C)C)NC(=O)c2nc1sc2C (mixture of isomers) [Compound 14],0.25 µg/mL,0.25 µg/mL,4 µg/mL,–,0.06 µg/mL,2 µg/mL,–,–,–,–
CCN1CCCC1CNC(=O)C1COC(c2csc(-c3ccc4c(n3)-c3csc(n3)-c3csc(n3)C(C(O)c3ccccc3)NC(=O)CNC(=O)c3nc(sc3COC)C(C(C)C)NC(=O)c3nc(sc3C)C(CC(=O)NC)NC(=O)c3csc-4n3)n2)=N1 (mixture of isomers) [Compound 1],0.5 µg/mL,0.25 µg/mL,2 µg/mL,–,0.06 µg/mL,2 µg/mL,128 µg/mL,–,–,–
CNC(=O)CC1NC(=O)c2csc(n2)-c2ccc(-c3nc(C4=NC(C(=O)N5CCCC5CN(C)CCN(C)C)CO4)cs3)nc2-c2csc(n2)-c2csc(n2)C(C(O)c2ccccc2)NC(=O)CNC(=O)c2nc(sc2COC)C(C(C)C)NC(=O)c2nc1sc2C (mixture of isomers) [Compound 21],0.25 µg/mL,0.25 µg/mL,4 µg/mL,–,0.06 µg/mL,1 µg/mL,–,–,–,–
CNC(=O)CC1NC(=O)c2csc(n2)-c2ccc(-c3nc(C4=NC(C(=O)N5CCN(C)CC5)CO4)cs3)nc2-c2csc(n2)-c2csc(n2)C(C(O)c2ccccc2)NC(=O)CNC(=O)c2nc(sc2COC)C(C(C)C)NC(=O)c2nc1sc2C (mixture of isomers) [Compound 6],0.25 µg/mL,0.25 µg/mL,4 µg/mL,128 µg/mL,0.06 µg/mL,4 µg/mL,–,–,–,–
CNC(=O)CC1NC(=O)c2csc(n2)-c2ccc(-c3nc(C4=NC(C(=O)N5CC(C)NC(C)C5)CO4)cs3)nc2-c2csc(n2)-c2csc(n2)C(C(O)c2ccccc2)NC(=O)CNC(=O)c2nc(sc2COC)C(C(C)C)NC(=O)c2nc1sc2C (mixture of isomers) [Compound 12],0.5 µg/mL,0.5 µg/mL,4 µg/mL,–,0.06 µg/mL,2 µg/mL,–,–,–,–
CNC(=O)CC1NC(=O)c2csc(n2)-c2ccc(-c3nc(C4=NC(C(=O)NC(C)C(=O)N(C)CCN(C)C)CO4)cs3)nc2-c2csc(n2)-c2csc(n2)C(C(O)c2ccccc2)NC(=O)CNC(=O)c2nc(sc2COC)C(C(C)C)NC(=O)c2nc1sc2C (mixture of isomers) [Compound 15],0.5 µg/mL,0.25 µg/mL,4 µg/mL,–,0.06 µg/mL,4 µg/mL,–,–,–,–
CNC(=O)CC1NC(=O)c2csc(n2)-c2ccc(-c3nc(C4=NC(C(=O)N(C)CCN(C)C)CO4)cs3)nc2-c2csc(n2)-c2csc(n2)C(C(O)c2ccccc2)NC(=O)CNC(=O)c2nc(sc2COC)C(C(C)C)NC(=O)c2nc1sc2C (mixture of isomers) [Compound 4],0.13 µg/mL,0.13 µg/mL,0.5 µg/mL,8 µg/mL,0.06 µg/mL,0.5 µg/mL,4 µg/mL,0.06 µg/mL,0.06 µg/mL,0.016 µg/mL
CNC(=O)CC1NC(=O)c2csc(n2)-c2ccc(-c3nc(C4=NC(C(=O)N5CCC(N(C)C)CC5)CO4)cs3)nc2-c2csc(n2)-c2csc(n2)C(C(O)c2ccccc2)NC(=O)CNC(=O)c2nc(sc2COC)C(C(C)C)NC(=O)c2nc1sc2C (mixture of isomers) [Compound 10],0.5 µg/mL,0.25 µg/mL,4 µg/mL,–,0.06 µg/mL,2 µg/mL,–,–,–,–
CNC(=O)CC1NC(=O)c2csc(n2)-c2ccc(-c3nc(C4=NC(C(=O)NCCN5CCCC5)CO4)cs3)nc2-c2csc(n2)-c2csc(n2)C(C(O)c2ccccc2)NC(=O)CNC(=O)c2nc(sc2COC)C(C(C)C)NC(=O)c2nc1sc2C (mixture of isomers) [Compound 2],0.5 µg/mL,0.25 µg/mL,4 µg/mL,–,0.06 µg/mL,1 µg/mL,128 µg/mL,–,–,–
CNC(=O)CC1NC(=O)c2csc(n2)-c2ccc(-c3nc(C4=NC(C(=O)N(C)CCN(C)CCN(C)C)CO4)cs3)nc2-c2csc(n2)-c2csc(n2)C(C(O)c2ccccc2)NC(=O)CNC(=O)c2nc(sc2COC)C(C(C)C)NC(=O)c2nc1sc2C (mixture of isomers) [Compound 16],0.25 µg/mL,0.25 µg/mL,8 µg/mL,–,0.06 µg/mL,2 µg/mL,–,–,–,–
CCN(CCN(C)C)C(=O)C1COC(c2csc(-c3ccc4c(n3)-c3csc(n3)-c3csc(n3)C(C(O)c3ccccc3)NC(=O)CNC(=O)c3nc(sc3COC)C(C(C)C)NC(=O)c3nc(sc3C)C(CC(=O)NC)NC(=O)c3csc-4n3)n2)=N1 (mixture of isomers) [Compound 8],1 µg/mL,0.5 µg/mL,4 µg/mL,–,0.06 µg/mL,8 µg/mL,–,–,–,–
CNC(=O)CC1NC(=O)c2csc(n2)-c2ccc(-c3nc(C4=NC(C(=O)NCCN(C(C)C)C(C)C)CO4)cs3)nc2-c2csc(n2)-c2csc(n2)C(C(O)c2ccccc2)NC(=O)CNC(=O)c2nc(sc2COC)C(C(C)C)NC(=O)c2nc1sc2C (mixture of isomers) [Compound 11],4 µg/mL,2 µg/mL,> 128 µg/mL,–,0.13 µg/mL,8 µg/mL,–,–,–,–
